Source: patent publication US20240115549A1, “TREATMENT OF MENTAL DISORDERS” (GH Research Ireland Limited, priority 2022, published 2024)
“And” between values parts separate entries of the source, which are not always exact repeats. Equal values may be shown once. “Also recorded” adds a separate entry of the source.

Test system: patients with postpartum depression (PPD)
Experiment: Clinical trial of inhaled 5-MeO-DMT in patients with postpartum depression
Type: in vivo, human
Details: individual PPD patient
Experimental: The single-arm, open-label clinical trial will involve 15 adult female patients with clinically diagnosed postpartum depression (PPD).
The second dose (12 mg) will only be administered if: • a. A peak experience (total score of 275) has not been achieved following the 6 mg dose, and • b. The 6 mg dose was safe and well-tolerated according to the investigator, • c. Any psychoactive effects (PsE) of the prior dose have subsided, and • d. Pre-dose vital parameters and forced expiratory volume in one second (FEV1) are in normal range, or if outside of the normal range, are not clinically significant according to the investigator. • 3. Similarly, a third dose (18 mg) will only be administered if: • a. A peak experience (total score of 275) has not been achieved following the 12 mg dose, and • b. The 12 mg dose was safe and well-tolerated according to the investigator, and • c. Any PsE of the prior dose have subsided, and • d. Pre-dose vital parameters and forced expiratory volume in one second (FEV1) are in normal range, or if outside of the normal range, are not clinically significant according to the investigator.
The patients will be assessed for a peak psychedelic experience (based on a patient-scored visual analogue scale, the PE scale), sedation, and other endpoints after dosing. Follow-up visits are planned for Day 1, and Day 7 after the dosing day.
The following criteria must be met by all patients considered for clinical trial participation: • 1. Is female and in the age range between 18 and 45 years (inclusive) at screening. • 2. Has a body mass index (BMI) in the range of 18.5 and 35 kg/m^2 (inclusive) at screening. • 3. Meets the trial criteria for PPD as assessed by a trial psychiatrist or registered psychologist: • a. Diagnosis of Major Depressive Disorder without psychotic features, confirmed by the Mini-International Neuropsychiatric Interview (MINI), with peri-partum onset that began no earlier than gestation and no later than the first 4 weeks postpartum. • b. Has a Montgomery-Åsberg Depression Rating Scale (MADRS) total score of equal to or greater than 28 at screening and pre-dose on Day 0. • 6. […] Patients must have a negative pregnancy test at screening and on the pre-test day (Day −1). • 5. Is willing to delay start of other antidepressant or anxiety medication until after the end of the trial at Day 7 and agrees to keep any psychotherapy unchanged during the trial.
A potential patient who meets any of the following key exclusion criteria will be excluded from participation in this trial: • 1. Has, based on history, psychiatric assessment, and evaluation of the MINI, a current or prior diagnosis of bipolar disorder, a manic or hypomanic episode, a psychotic disorder, Major Depressive Disorder (MDD) or other mood disorder with psychotic features, obsessive compulsive disorder, post-traumatic stress disorder (PTSD), autism spectrum disorder, borderline personality disorder, schizophrenia, delusional disorder, paranoid personality disorder, schizoaffective disorder, clinically significant intellectual disability, or any other psychiatric comorbidity that renders the patient unsuitable for the trial according to the investigator's judgment. • 2. Has one or more first or second degree relatives with a current or previously diagnosed bipolar disorder, psychotic disorder or other mood disorder (including MDD) with psychotic features. • 3. Is in the judgement of a trial psychiatrist or registered psychologist, at significant risk for suicide based on history, psychiatric assessment, and evaluation of suicidal ideation and suicidal behaviour based on the Columbia-Suicide Severity Rating Scale (C-SSRS). • 4. Has taken anti-depressive medication within 14 days or 5 half-lives (whichever is longer) prior to dosing (exception: within the last 5 weeks in the case of fluoxetine). • 5.

COc1ccc2[nH]cc(CCN(C)C)c2c1 [5-MeO-DMT]
Reported adverse events: mild, short-lasting and resolved spontaneously | Standard criteria for MADRS response (>=50% improvement) and remission (total <=10): fulfilled | Tolerability of inhalation procedure / regimen (6 mg then 12 mg): well tolerated with no inhalation-related adverse events; also recorded: well tolerated | MADRS apparent sadness improvement (2 h): 5 and 4 | MADRS apparent sadness score (2 h): 0 | MADRS concentration difficulties improvement (2 h): 0 and 4 | MADRS concentration difficulties score (2 h): 0 | MADRS inability to feel improvement (2 h): 3 and 4 | MADRS inability to feel score (2 h): 0 | MADRS inner tension improvement (2 h): 5 and 4 | MADRS inner tension score (2 h): 0 | MADRS lassitude improvement (2 h): 3 and 4 | MADRS lassitude score (2 h): 0 | MADRS pessimistic thoughts improvement (2 h): 4 | MADRS pessimistic thoughts score (2 h): 0 | MADRS reduced appetite improvement (2 h): 0 and 6 | MADRS reduced appetite score (2 h): 0 | MADRS reduced sleep improvement (2 h): 0 | MADRS reported sadness improvement (2 h): 4 and 5 | MADRS reported sadness score (2 h): 0 | MADRS suicidal thoughts improvement (2 h): 0 and 1 | MADRS suicidal thoughts score (2 h): 0 | MADRS reduced sleep score (2 h (baseline carried forward)): 5 | BPRS anxiety improvement (Day 1): 6 and 5 | BPRS anxiety score (Day 1): 1 | BPRS blunted affect improvement (Day 1): 0 and 4 | BPRS blunted affect score (Day 1): 1 | BPRS conceptual disorganization improvement (Day 1): 0 and 3 | BPRS conceptual disorganization score (Day 1): 1 | BPRS depressive mood improvement (Day 1): 5 and 4 | BPRS depressive mood score (Day 1): 1 | BPRS disorientation improvement (Day 1): 0 | BPRS disorientation score (Day 1): 1 | BPRS emotional withdrawal improvement (Day 1): 4 and 5 | BPRS emotional withdrawal score (Day 1): 1 | BPRS excitement improvement (Day 1): 1 and 0 | BPRS excitement score (Day 1): 1 | BPRS grandiosity improvement (Day 1): 0 | BPRS grandiosity score (Day 1): 1 | BPRS guilt feelings improvement (Day 1): 5 | BPRS guilt feelings score (Day 1): 1 | BPRS hallucinatory behaviour improvement (Day 1): 0 | BPRS hallucinatory behaviour score (Day 1): 1 | BPRS hostility improvement (Day 1): 0 and 3 | BPRS hostility score (Day 1): 1 | BPRS mannerisms and posturing improvement (Day 1): 0 | BPRS mannerisms and posturing score (Day 1): 1 | BPRS motor retardation improvement (Day 1): 0 and 2 | BPRS motor retardation score (Day 1): 1 | BPRS somatic concern improvement (Day 1): 5 and 0 | BPRS somatic concern score (Day 1): 1 | BPRS suspiciousness improvement (Day 1): 0 | BPRS suspiciousness score (Day 1): 1 | BPRS tension improvement (Day 1): 5 and 3 | BPRS tension score (Day 1): 1 | BPRS uncooperativeness improvement (Day 1): 0 | BPRS uncooperativeness score (Day 1): 1 | BPRS unusual thought content improvement (Day 1): 0 | BPRS unusual thought content score (Day 1): 1 | MADRS apparent sadness improvement (Day 1): 5 and 4 | MADRS apparent sadness score (Day 1): 0 | MADRS concentration difficulties improvement (Day 1): 0 and 4 | MADRS concentration difficulties score (Day 1): 0 | MADRS inability to feel improvement (Day 1): 3 and 4 | MADRS inability to feel score (Day 1): 0 | MADRS inner tension improvement (Day 1): 5 and 4 | MADRS inner tension score (Day 1): 0 | MADRS lassitude improvement (Day 1): 3 and 4 | MADRS lassitude score (Day 1): 0 | MADRS pessimistic thoughts improvement (Day 1): 4 | MADRS pessimistic thoughts score (Day 1): 0 | MADRS reduced appetite improvement (Day 1): 0 and 6 | MADRS reduced appetite score (Day 1): 0 | MADRS reduced sleep improvement (Day 1): 5 | MADRS reduced sleep score (Day 1): 0 | MADRS reported sadness improvement (Day 1): 4 and 5 | MADRS reported sadness score (Day 1): 0 | MADRS suicidal thoughts improvement (Day 1): 0 and 1 | MADRS suicidal thoughts score (Day 1): 0 | BIMF TOTAL score (Day 7): 105 and 104 | BIMF item 1 (I am a good mother) score (Day 7): 6 and 5 | BIMF item 2 (I feel rested) score (Day 7): 2 and 4 | BIMF item 3 (comfortable with the way I've chosen to feed my baby) score (Day 7): 6 | BIMF item 4 (My baby and I understand each other) score (Day 7): 5 and 6 | BIMF item 5 (able to relax and enjoy time with my baby) score (Day 7): 6 | BIMF item 6 (people I can trust to care for my baby when I need a break) score (Day 7): 6 and 5 | BIMF item 8 (getting enough adult interaction) score (Day 7): 6 and 4 | BIMF item 9 (getting enough encouragement from other people) score (Day 7): 6 and 5 | BIMF item 10 (I trust my own feelings (instincts)) score (Day 7): 6 | BIMF item 11 (a little time each week to do something for myself) score (Day 7): 6 and 4 | BIMF item 12 (taking good care of my baby's physical needs) score (Day 7): 6 | BIMF item 13 (taking good care of my physical needs) score (Day 7): 5 | BIMF item 14 (good decisions about my baby's health and well being) score (Day 7): 6 | BIMF item 15 (My baby and I are getting into a routine) score (Day 7): 6 and 5 | BIMF item 16 (I worry about how other people judge me) score (Day 7): 5 | BIMF item 17 (able to take care of my baby and my other responsibilities) score (Day 7): 5 | BIMF item 18 (Anxiety or worry often interferes with my mothering ability) score (Day 7): 5 | BIMF item 19 (getting better at taking care of my baby) score (Day 7): 1 and 6 | BIMF item 20 (satisfied with the job I am doing as a new mother) score (Day 7): 5 | BIMF total score improvement, percent (Day 7): 14% and over 40% | BPRS anxiety improvement (Day 7): 6 and 5 | BPRS anxiety score (Day 7): 1 | BPRS blunted affect improvement (Day 7): 0 and 4 | BPRS blunted affect score (Day 7): 1 | BPRS conceptual disorganization improvement (Day 7): 0 and 3 | BPRS conceptual disorganization score (Day 7): 1 | BPRS depressive mood improvement (Day 7): 5 and 4 | BPRS depressive mood score (Day 7): 1 | BPRS disorientation improvement (Day 7): 0 | BPRS disorientation score (Day 7): 1 | BPRS emotional withdrawal improvement (Day 7): 4 and 5 | BPRS emotional withdrawal score (Day 7): 1 | BPRS excitement improvement (Day 7): 1 and 0 | BPRS excitement score (Day 7): 1 | BPRS grandiosity improvement (Day 7): 0 | BPRS grandiosity score (Day 7): 1 | BPRS guilt feelings improvement (Day 7): 5 | BPRS guilt feelings score (Day 7): 1 | BPRS hallucinatory behaviour improvement (Day 7): 0 | BPRS hallucinatory behaviour score (Day 7): 1 | BPRS hostility improvement (Day 7): 0 and 3 | BPRS hostility score (Day 7): 1 | BPRS mannerisms and posturing improvement (Day 7): 0 | BPRS mannerisms and posturing score (Day 7): 1 | BPRS motor retardation improvement (Day 7): 0 and 2 | BPRS motor retardation score (Day 7): 1 | BPRS somatic concern improvement (Day 7): 5 and 0 | BPRS somatic concern score (Day 7): 1 | BPRS suspiciousness improvement (Day 7): 0 | BPRS suspiciousness score (Day 7): 1 | BPRS tension improvement (Day 7): 5 and 3 | BPRS tension score (Day 7): 1 | BPRS uncooperativeness improvement (Day 7): 0 | BPRS uncooperativeness score (Day 7): 1 | BPRS unusual thought content improvement (Day 7): 0 | BPRS unusual thought content score (Day 7): 1 | MADRS apparent sadness improvement (Day 7): 5 and 4 | MADRS apparent sadness score (Day 7): 0 | MADRS concentration difficulties improvement (Day 7): 0 and 4 | MADRS concentration difficulties score (Day 7): 0 | MADRS inability to feel improvement (Day 7): 3 and 4 | MADRS inability to feel score (Day 7): 0 | MADRS inner tension improvement (Day 7): 4 | MADRS inner tension score (Day 7): 1 and 0 | MADRS lassitude improvement (Day 7): 3 and 4 | MADRS lassitude score (Day 7): 0 | MADRS pessimistic thoughts improvement (Day 7): 4 | MADRS pessimistic thoughts score (Day 7): 0 | MADRS reduced appetite improvement (Day 7): 0 and 6 | MADRS reduced appetite score (Day 7): 0 | MADRS reduced sleep improvement (Day 7): 5 | MADRS reduced sleep score (Day 7): 0 | MADRS reported sadness improvement (Day 7): 4 and 5 | MADRS reported sadness score (Day 7): 0 | MADRS suicidal thoughts improvement (Day 7): 0 and 1 | MADRS suicidal thoughts score (Day 7): 0 | Total MADRS improvement (Day 7): 41 | Total MADRS score (Day 7): 0 | BIMF TOTAL Δ (Day 7 vs Day 0): 13 and 45 | BIMF domain Adjustment Δ (Day 7 vs Day 0): 1 and 9 | BIMF domain Infant Care Δ (Day 7 vs Day 0): 0 | BIMF domain Management Δ (Day 7 vs Day 0): 5 and 13 | BIMF domain Mother-Child Interaction Δ (Day 7 vs Day 0): 2 and 7 | BIMF domain Psychological Well-being Δ (Day 7 vs Day 0): 9 and 27 | BIMF domain Self-Care Δ (Day 7 vs Day 0): 4 and 10 | BIMF domain Social Support % Improvement (Day 7 vs Day 0): approx. 27% and 27% | BIMF domain Social Support Δ (Day 7 vs Day 0): 1 and 3 | BIMF item 1 (I am a good mother) Δ (Day 7 vs Day 0): 0 and 1 | BIMF item 2 (I feel rested) Δ (Day 7 vs Day 0): 2 and 4 | BIMF item 3 (comfortable with the way I've chosen to feed my baby) Δ (Day 7 vs Day 0): 0 and 1 | BIMF item 4 (My baby and I understand each other) Δ (Day 7 vs Day 0): 0 and 1 | BIMF item 5 (able to relax and enjoy time with my baby) Δ (Day 7 vs Day 0): 1 and 5 | BIMF item 6 (people I can trust to care for my baby when I need a break) Δ (Day 7 vs Day 0): 0 | BIMF item 8 (getting enough adult interaction) Δ (Day 7 vs Day 0): 0 and 1 | BIMF item 9 (getting enough encouragement from other people) Δ (Day 7 vs Day 0): 1 and 2 | BIMF item 10 (I trust my own feelings (instincts)) Δ (Day 7 vs Day 0): 1 and 2 | BIMF item 11 (a little time each week to do something for myself) Δ (Day 7 vs Day 0): 1 and 2 | BIMF item 12 (taking good care of my baby's physical needs) Δ (Day 7 vs Day 0): 0 | BIMF item 13 (taking good care of my physical needs) Δ (Day 7 vs Day 0): 1 and 4 | BIMF item 14 (good decisions about my baby's health and well being) Δ (Day 7 vs Day 0): 0 | BIMF item 15 (My baby and I are getting into a routine) Δ (Day 7 vs Day 0): 1 | BIMF item 16 (I worry about how other people judge me) Δ (Day 7 vs Day 0): 2 and 4 | BIMF item 17 (able to take care of my baby and my other responsibilities) Δ (Day 7 vs Day 0): 0 and 3 | BIMF item 18 (Anxiety or worry often interferes with my mothering ability) Δ (Day 7 vs Day 0): 3 and 5 | BIMF item 19 (getting better at taking care of my baby) Δ (Day 7 vs Day 0): 1 and 6 | BIMF item 20 (satisfied with the job I am doing as a new mother) Δ (Day 7 vs Day 0): −1 and 4 | BPRS anxiety improvement (discharge): 6 and 5 | BPRS anxiety score (discharge): 1 | BPRS blunted affect improvement (discharge): 0 and 4 | BPRS blunted affect score (discharge): 1 | BPRS conceptual disorganization improvement (discharge): 0 and 3 | BPRS conceptual disorganization score (discharge): 1 | BPRS depressive mood improvement (discharge): 5 and 4 | BPRS depressive mood score (discharge): 1 | BPRS disorientation improvement (discharge): 0 | BPRS disorientation score (discharge): 1 | BPRS emotional withdrawal improvement (discharge): 4 and 5 | BPRS emotional withdrawal score (discharge): 1 | BPRS excitement improvement (discharge): 1 and 0 | BPRS excitement score (discharge): 1 | BPRS grandiosity improvement (discharge): 0 | BPRS grandiosity score (discharge): 1 | BPRS guilt feelings improvement (discharge): 5 | BPRS guilt feelings score (discharge): 1 | BPRS hallucinatory behaviour improvement (discharge): 0 | BPRS hallucinatory behaviour score (discharge): 1 | BPRS hostility improvement (discharge): 0 and 3 | BPRS hostility score (discharge): 1 | BPRS mannerisms and posturing improvement (discharge): 0 | BPRS mannerisms and posturing score (discharge): 1 | BPRS motor retardation improvement (discharge): 0 and 2 | BPRS motor retardation score (discharge): 1 | BPRS somatic concern improvement (discharge): 5 and 0 | BPRS somatic concern score (discharge): 1 | BPRS suspiciousness improvement (discharge): 0 | BPRS suspiciousness score (discharge): 1 | BPRS tension improvement (discharge): 3 | BPRS tension score (discharge): 1 | BPRS uncooperativeness improvement (discharge): 0 | BPRS uncooperativeness score (discharge): 1 | BPRS unusual thought content improvement (discharge): 0 | BPRS unusual thought content score (discharge): 1
